# According to PubChem BioAssay AID464 (The Scripps Research Institute Molecular Screening Center, 2006):
# Activity calls are given as the source filed them.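 Rule for the calls: active = Compounds that kill half the cells at a concentration of 5 micromolar or below, from the fitted or estimated CC50; inactive = CC50 above 5 micromolar.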
# System: Jurkat E6.1 viability, ATP luminescence, 48 h
# Assay: viability loss in Jurkat T cells – cell-based, ATP luminescence, 48 h, 60K MLSMR, cytotoxicity control, dose response (AID 464)
row,Structure (SMILES),CC50
1,CN(CCCC(=O)Nc1ccncc1)S(=O)(=O)c1ccc(Cl)cc1,5.53 µM (inactive)
2,O=C(CC(=O)c1ccccc1O)c1cccc(F)c1,> 40 µM (inactive)
3,O=C(NCc1cccs1)C1CCN(c2ccc(S(=O)(=O)N3CCOCC3)cc2Cl)CC1,0.875 µM
4,CCC(C)Oc1ccccc1C1CC(=O)NC2=C1C(=O)CCC2 (stereo not given),4.73 µM
5,O=C(CCn1c(=O)oc2ccccc21)N1CCN(c2ccccc2Cl)CC1,5.77 µM (inactive)
6,O=C(Cn1cnc2sc(-c3ccccc3)cc2c1=O)NCc1ccco1,6 µM (inactive)
7,CCOc1ccc2nc(-c3ccccc3)[nH]c2c1,3.01 µM
8,CN(C)c1ccccc1C(=O)c1ccccc1N(C)C,0.743 µM
9,COc1ccc(-c2nnc(NC(=O)c3ccc(S(=O)(=O)N4COCC4(C)C)cc3)o2)cc1,22.7 µM (inactive)
10,COc1ccccc1S(=O)(=O)Cc1ccc(C(=O)N2CCN(c3cccc(Cl)c3)CC2)o1,3.75 µM
11,CCOc1ccc2ccccc2c1C(=O)N1CCN(c2ccccc2)CC1,3.75 µM
12,CCN(CC)S(=O)(=O)c1cc(C(=O)Nc2ccncc2)ccc1Cl,8.55 µM (inactive)
13,COc1ccccc1-c1cc(C(F)(F)F)nc(S(=O)(=O)CCCC(=O)N2CCCCC2C)n1 (stereo not given),4.22 µM
14,COc1ccc(Nc2oc(-c3ccccc3Cl)nc2C#N)cc1,1.42 µM
15,CCOC(=O)C1CCN(Cc2ccc(O)c3ncccc23)CC1,9.85 µM (inactive)
16,Cc1cccc(-n2ncc3c(NCc4ccccc4)ncnc32)c1,3.86 µM
17,On1onc2c3cc(-c4ccccc4)nc3ccc21,3.9 µM
18,CCn1ncc(C2=NOC(C(=O)NCc3ccc(Cl)cc3)C2)c1C (stereo not given),1.61 µM
19,COc1ccccc1-c1cc(C(F)(F)F)nc(S(=O)(=O)CCCC(=O)N2CCOCC2)n1,2.22 µM
20,CC1CN(S(=O)(=O)c2ccc(NC(=O)c3cc(-c4ccccc4O)n[nH]3)cc2)CC(C)O1 (stereo not given),> 13 µM (inactive)
21,N#CC1=C(N)Oc2cc(N)ccc2C1C1CC=CCC1 (stereo not given),> 4.4 µM (inactive)
22,COc1ccccc1N1CCN(C(=O)c2c(-c3ccccc3)noc2C)CC1,2.92 µM
23,CCOC(=O)C(C(C)=O)c1c(Br)c(O)c(O)c2c(C(=O)c3ccc(C)cc3)coc12 (stereo not given),6.14 µM (inactive)
24,COc1ccc(OC)c(NS(=O)(=O)c2ccc(SC)cc2)c1,3.29 µM
25,CCOC(=O)N1CCN(c2c(NCc3cccs3)c(=O)c2=O)CC1,5.79 µM (inactive)

row,Structure (SMILES),CC50
1,CCN(CC)c1ccc(NC(=O)c2ccccc2F)cc1,> 4.4 µM (inactive)
2,Cn1nc(CC(=O)Nc2ccc3c(c2)OCCO3)c2ccccc2c1=O,0.96 µM
3,CC1=CC(C)(C)Nc2ccc(OC(=O)c3ccco3)cc21,4.78 µM
4,O=C(Nc1ccn(-c2ccccc2)n1)c1ccc(S(=O)(=O)N2CCCCCC2)cc1,19.8 µM (inactive)
5,CCc1ccc(CCC(=O)Nc2sc3c(c2C#N)CCCC3)o1,3.05 µM
6,Cc1nn(Cc2c(Cl)cccc2Cl)c(C)c1NC(=O)c1cc(C(C)C)on1,> 40 µM (inactive)
7,COc1ccc(NS(=O)(=O)c2ccc(NC(C)=O)cc2)cc1OC,17.7 µM (inactive)
8,COc1cccc(OC)c1-c1nn2c(-c3cc(-c4ccccc4)n[nH]3)nnc2s1,8.6 µM (inactive)
9,OCCN1CCN(C(c2cccs2)c2ccc3cccnc3c2O)CC1 (stereo not given),13.5 µM (inactive)
10,CCOC(=O)c1[nH]c(C)c(C(=O)Nc2ccc(C)c(F)c2)c1C,7.19 µM (inactive)
11,O=S(=O)(CCSc1ccccn1)c1nc2ccccc2s1,11.8 µM (inactive)
12,O=C(Nc1nc(-c2ccc3c(c2)OCCO3)cs1)c1ccc(S(=O)(=O)N2CCCCC2)cc1,8.3 µM (inactive)
13,CN(C)S(=O)(=O)c1ccc(C(=O)Nc2nc(-c3cccs3)cs2)cc1,21.1 µM (inactive)
14,O=C(NCCN1CCOCC1)NC1(C(F)(F)F)Oc2ccc(Cl)cc2O1 (stereo not given),8.23 µM (inactive)
15,CCOC(=O)c1c(C)c(C(=O)Nc2ccc3c(c2)OCCO3)c(C)n1CC,7.96 µM (inactive)
16,Oc1c(CN2CCOCC2)cc(COCc2ccccc2)c2cccnc12,2.65 µM
17,CCCCNc1cc(C)nc(NCc2ccccc2)n1,10.5 µM (inactive)
18,COc1cc(C2C(C#N)=C(C)NC3=C2C(=O)c2ccccc23)cc(OC)c1OC (stereo not given),3.48 µM
19,COc1cccc(N2CCN(C(=O)c3[nH]c(C)c(C(C)=O)c3C)CC2)c1,1.74 µM
20,CNc1nc(C)c(C(=O)OCc2ccccc2)s1,9.81 µM (inactive)
21,O=C(CN1CCC(c2nc3ccccc3s2)CC1)NCc1cccs1,18 µM (inactive)
22,CCOC(=O)c1[nH]c2c(c1C)C(=O)CC(c1ccco1)C2 (stereo not given),0.201 µM
23,CC(=O)Oc1ccc(Oc2ccc(-c3noc(C)n3)cc2)cc1,> 40 µM (inactive)
24,Cc1ccc(S(=O)(=O)NCc2ccncc2)cc1,2.87 µM
25,Cc1sc(NC(=O)c2ccco2)c(C(c2cccnc2)N2CCN(c3ccc(F)cc3)CC2)c1C (stereo not given),> 40 µM (inactive)

row,Structure (SMILES),CC50
1,CCn1c(NC(=O)c2cccc(Cn3cc(Cl)cn3)c2)nc2ccccc21,> 40 µM (inactive)
2,CCc1nnc(NC(=O)c2ccc(S(=O)(=O)N(CC(C)C)CC(C)C)cc2)o1,29.8 µM (inactive)
3,CCn1c(SCC(=O)c2c[nH]c3ccccc23)nnc1-c1cccs1,8.26 µM (inactive)
4,COc1cc(C(=O)OCC(=O)c2cc(C)n(C)c2C)cc(OC)c1OC,> 4.4 µM (inactive)
5,Nc1nonc1-c1nc2ccccc2n1Cc1ccccc1,6.41 µM (inactive)
6,COc1cccc(C(=O)/C=C/Nc2cc(C)ccc2O)c1,2.95 µM
7,CCOC(=O)c1[nH]c(C)c(C(=O)Nc2cc(OC)ccc2OC)c1C,0.458 µM
8,Cc1cccc(Cn2c(=O)n(CCCC(=O)NCc3ccco3)c(=O)c3ccccc32)c1,5.14 µM (inactive)
9,Cc1cc(C)cc(NS(=O)(=O)c2ccc3[nH]cc(C(=O)NCc4ccco4)c(=O)c3c2)c1,5.48 µM (inactive)
10,Cc1cc(C(=O)CSc2nnc(NCc3ccccc3)s2)c(C)n1C,12.9 µM (inactive)
11,Cc1cc(/C=N/n2cnnc2)c(C)n1-c1ccc(OCc2ccc(F)cc2)cc1,> 13 µM (inactive)
12,O=c1cc(-c2ccccc2)[nH]c2ccccc12,0.373 µM
13,Cc1noc(C)c1COc1cccc(C(=O)OCC(=O)N2CC(=O)Nc3ccccc32)c1,6.33 µM (inactive)
14,O=c1cc(Nc2ccc3c(c2)OCCO3)[nH]c(=O)n1C1CCCCC1,11.7 µM (inactive)
15,Cc1oc(-c2ccc(Cl)cc2)nc1CN1CCCC(C(=O)N2CCN(C(=O)c3ccco3)CC2)C1 (stereo not given),2.07 µM
16,O=C(c1cc2c(s1)-c1ccccc1OC2)N1CCC2(CC1)OCCO2,6.1 µM (inactive)
17,CCCNc1nc2c(c(=O)n(C)c(=O)n2C)n1Cc1cccc(C)c1,10.8 µM (inactive)
18,COc1ccc(CC(=O)Nc2nc(C)cs2)cc1OC,23.4 µM (inactive)
19,COc1ccc(-c2cc(N)n(S(=O)(=O)c3c(F)c(F)c(F)c(F)c3F)n2)cc1OC,2.01 µM
20,CSCc1nnc(NC(=O)c2ccc(S(=O)(=O)N(CC(C)C)CC(C)C)cc2)o1,21.1 µM (inactive)
21,CCCCC(=O)Nc1ccc(C(=O)NCCCn2ccnc2)cc1,> 4.4 µM (inactive)
22,Cc1ccc(Oc2ccc(S(=O)(=O)N3CCOCC3)cc2C(N)=O)c(-n2nc3ccccc3n2)c1,2.31 µM
23,O=C(Nc1nc(-c2ccccc2)cs1)C1CCCN(S(=O)(=O)c2ccccc2)C1 (stereo not given),20.9 µM (inactive)
24,CCOc1ccc(S(=O)(=O)Nc2cc(OC)ccc2OC)cc1,0.145 µM
25,CCOC(=O)N1CCN(C(=O)c2ccccc2-c2ccccc2)CC1,1.91 µM
